From patent US20240299385A1 (ReWind Therapeutics NV, priority 2021, published 2024)

Target: T1, human GPR17 receptor (Homo sapiens, UniProt Q13304)
T1 construct: host or cells: HEK-293
Assay: Calcium mobilization functional assay (Fluo-8, FLIPR TETRA) in HEK-293 hGPR17 (Gα-q assay)
Type: cell-based
Details: antagonism of MDL29,951 (~EC80) induced Ca2+ signal; cell line (HEK-293 hGPR17 or HEK-293 Suchi5 hGPR17) not given
Method in brief: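 Fluo-8-loaded HEK-293 hGPR17 cells (60 min dye loading, room temperature) were preincubated with compound for twenty minutes, then challenged with agonist MDL29,951 at ~EC80, 500 nM. Intracellular calcium release via Gα-q was recorded as FLIPR fluorescence for a further 2 minutes; compounds tested in duplicate.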

T1 sequence (Q13304 whole entry): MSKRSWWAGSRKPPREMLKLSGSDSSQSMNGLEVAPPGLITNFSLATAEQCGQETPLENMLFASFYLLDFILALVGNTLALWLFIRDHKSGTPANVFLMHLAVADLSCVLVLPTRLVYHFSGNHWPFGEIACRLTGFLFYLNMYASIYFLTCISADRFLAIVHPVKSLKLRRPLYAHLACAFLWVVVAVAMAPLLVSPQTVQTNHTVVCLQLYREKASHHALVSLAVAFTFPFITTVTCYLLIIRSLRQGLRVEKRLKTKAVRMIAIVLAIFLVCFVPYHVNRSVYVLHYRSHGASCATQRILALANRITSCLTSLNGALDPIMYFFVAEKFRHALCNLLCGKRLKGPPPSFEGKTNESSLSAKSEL

| Structure (SMILES) | IC50 |
| --- | --- |
| N#Cc1ccc(NS(=O)(=O)c2c[nH]cc2Cc2cccc(OC3CC3)c2)c(F)c1 [Cpd 340, N-(4-cyano-2-fluoro-phenyl)-4-[[3-(cyclopropoxy)phenyl]methyl]-1H-pyrrole-3-sulfonamide] | 500 to 5000 nM |
| N#Cc1ccc(NS(=O)(=O)c2c[nH]cc2Cc2cccc(OCC3CC3)c2)c(F)c1 [Cpd 342, N-(4-cyano-2-fluoro-phenyl)-4-[[3-(cyclopropylmethoxy)phenyl]methyl]-1H-pyrrole-3-sulfonamide] | 500 to 5000 nM |
| O=S(=O)(Nc1cc(F)c(C(F)(F)F)cc1F)c1c[nH]c(-c2cccc(C(F)(F)F)n2)c1 [Cpd 344, N-[2,5-difluoro-4-(trifluoromethyl)phenyl]-5-[6-(trifluoromethyl)-2-pyridyl]-1H-pyrrole-3-sulfonamide] | 500 to 5000 nM |
| O=S(=O)(Nc1cc(F)c(C(F)(F)F)cc1F)c1c[nH]c(-c2ccc(Br)cn2)c1 [Cpd 345, 5-(5-bromo-2-pyridyl)-N-[2,5-difluoro-4-(trifluoromethyl)phenyl]-1H-pyrrole-3-sulfonamide] | 500 to 5000 nM |
| O=S(=O)(Nc1cc(F)c(C(F)(F)F)cc1F)c1c[nH]c(-c2ncccc2Br)c1 [Cpd 346, 5-(3-bromo-2-pyridyl)-N-[2,5-difluoro-4-(trifluoromethyl)phenyl]-1H-pyrrole-3-sulfonamide] | < 500 nM |
| O=S(=O)(Nc1cc(F)c(C(F)(F)F)cc1F)c1c[nH]c(-c2ccccc2Cl)c1 [Cpd 351, 5-(2-chlorophenyl)-N-[2,5-difluoro-4-(trifluoromethyl)phenyl]-1H-pyrrole-3-sulfonamide] | 500 to 5000 nM |
| N#Cc1ccccc1-c1cc(S(=O)(=O)Nc2cc(F)c(C(F)(F)F)cc2F)c[nH]1 [Cpd 355, 5-(2-cyanophenyl)-N-[2,5-difluoro-4-(trifluoromethyl)phenyl]-1H-pyrrole-3-sulfonamide] | 500 to 5000 nM |
| O=S(=O)(Nc1cc(F)c(C(F)(F)F)cc1F)c1c[nH]c(-c2cccc(Cl)c2)c1 [Cpd 356, 5-(3-chlorophenyl)-N-[2,5-difluoro-4-(trifluoromethyl)phenyl]-1H-pyrrole-3-sulfonamide] | 500 to 5000 nM |
| O=S(=O)(Nc1cc(F)c(Br)cc1F)c1c[nH]cc1-c1cccc(F)c1 [Cpd 359, N-(4-bromo-2,5-difluoro-phenyl)-4-(3-fluorophenyl)-1H-pyrrole-3-sulfonamide] | 500 to 5000 nM |
| O=S(=O)(Nc1cc(F)c(OC(F)F)cc1F)c1c[nH]cc1-c1cccc(F)c1 [Cpd 360, N-[4-(difluoromethoxy)-2,5-difluoro-phenyl]-4-(3-fluorophenyl)-1H-pyrrole-3-sulfonamide] | < 500 nM |
| O=S(=O)(Nc1cc(F)c(C(F)(F)F)cc1F)c1c[nH]c(-c2ccccc2C(F)(F)F)c1 [Cpd 361, N-[2,5-difluoro-4-(trifluoromethyl)phenyl]-5-[2-(trifluoromethyl)phenyl]-1H-pyrrole-3-sulfonamide] | 500 to 5000 nM |
| O=S(=O)(Nc1cc(F)c(C(F)(F)F)cc1F)c1c[nH]c(-c2ccc(Cl)cc2F)c1 [Cpd 362, 5-(4-chloro-2-fluoro-phenyl)-N-[2,5-difluoro-4-(trifluoromethyl)phenyl]-1H-pyrrole-3-sulfonamide] | 5000 to 50000 nM |
| O=S(=O)(Nc1cc(F)c(C(F)(F)F)cc1F)c1c[nH]c(-c2c(F)cccc2Cl)c1 [Cpd 363, 5-(2-chloro-6-fluoro-phenyl)-N-[2,5-difluoro-4-(trifluoromethyl)phenyl]-1H-pyrrole-3-sulfonamide] | 500 to 5000 nM |
| O=S(=O)(Nc1cc(F)c(C(F)(F)F)cc1F)c1c[nH]cc1-c1cccc(F)c1 [Cpd 364, N-[2,5-difluoro-4-(trifluoromethyl)phenyl]-4-(3-fluorophenyl)-1H-pyrrole-3-sulfonamide] | 500 to 5000 nM |
| O=S(=O)(Nc1cc(F)c(C(F)(F)F)cc1F)c1c[nH]c(-c2cccc(C(F)(F)F)c2)c1 [Cpd 365, N-[2,5-difluoro-4-(trifluoromethyl)phenyl]-5-[3-(trifluoromethyl)phenyl]-1H-pyrrole-3-sulfonamide] | 500 to 5000 nM |
| O=S(=O)(Nc1cc(F)c(C(F)(F)F)cc1F)c1c[nH]c(-c2ccc(F)cc2F)c1 [Cpd 366, 5-(2,4-difluorophenyl)-N-[2,5-difluoro-4-(trifluoromethyl)phenyl]-1H-pyrrole-3-sulfonamide] | 500 to 5000 nM |
| O=S(=O)(Nc1cc(F)c(C(F)(F)F)cc1F)c1c[nH]c(-c2ccc(C(F)(F)F)cn2)c1 [Cpd 369, N-[2,5-difluoro-4-(trifluoromethyl)phenyl]-5-[5-(trifluoromethyl)-2-pyridyl]-1H-pyrrole-3-sulfonamide] | 5000 to 50000 nM |
| O=S(=O)(Nc1cc(F)c(C(F)(F)F)cc1F)c1c[nH]c(-c2cc(C(F)(F)F)ccn2)c1 [Cpd 370, N-[2,5-difluoro-4-(trifluoromethyl)phenyl]-5-[4-(trifluoromethyl)-2-pyridyl]-1H-pyrrole-3-sulfonamide] | 5000 to 50000 nM |
| O=S(=O)(Nc1cnc(C(F)(F)F)s1)c1c[nH]c(-c2ccccc2)c1 [Cpd 375, 5-phenyl-N-[2-(trifluoromethyl)thiazol-5-yl]-1H-pyrrole-3-sulfonamide] | 5000 to 50000 nM |
| O=S(=O)(Nc1cc(Cl)c(C(F)(F)F)cc1F)c1c[nH]c(-c2ccccc2)c1 [Cpd 378, N-[5-chloro-2-fluoro-4-(trifluoromethyl)phenyl]-5-phenyl-1H-pyrrole-3-sulfonamide] | 500 to 5000 nM |

Continued, values first:

| IC50 | Structure (SMILES) |
| --- | --- |
| 500 to 5000 nM | CC(C)Oc1cccc(Cc2c[nH]cc2S(=O)(=O)Nc2ccc(C#N)cc2F)c1 [Cpd 341, N-(4-cyano-2-fluoro-phenyl)-4-[(3-isopropoxyphenyl)methyl]-1H-pyrrole-3-sulfonamide] |
| < 500 nM | N#Cc1ccc(NS(=O)(=O)c2c[nH]cc2Cc2cccs2)c(F)c1 [Cpd 343, N-(4-cyano-2-fluoro-phenyl)-4-(2-thienylmethyl)-1H-pyrrole-3-sulfonamide] |
| 500 to 5000 nM | N#Cc1ccc(NS(=O)(=O)c2c[nH]c(-c3ccc(F)cn3)c2)c(F)c1 [Cpd 347, N-(4-cyano-2-fluoro-phenyl)-5-(5-fluoro-2-pyridyl)-1H-pyrrole-3-sulfonamide] |
| < 500 nM | Cc1cccnc1-c1cc(S(=O)(=O)Nc2ccc(C#N)cc2F)c[nH]1 [Cpd 348, N-(4-cyano-2-fluoro-phenyl)-5-(3-methyl-2-pyridyl)-1H-pyrrole-3-sulfonamide] |
| < 500 nM | N#Cc1ccc(NS(=O)(=O)c2c[nH]c(-c3ncccc3Cl)c2)c(F)c1 [Cpd 349, 5-(3-chloro-2-pyridyl)-N-(4-cyano-2-fluoro-phenyl)-1H-pyrrole-3-sulfonamide] |
| < 500 nM | N#Cc1ccc(NS(=O)(=O)c2c[nH]c(-c3ncccc3Br)c2)c(F)c1 [Cpd 350, 5-(3-bromo-2-pyridyl)-N-(4-cyano-2-fluoro-phenyl)-1H-pyrrole-3-sulfonamide] |
| 500 to 5000 nM | COc1cc(F)ccc1-c1cc(S(=O)(=O)Nc2ccc(C#N)cc2F)c[nH]1 [Cpd 352, N-(4-cyano-2-fluoro-phenyl)-5-(4-fluoro-2-methoxy-phenyl)-1H-pyrrole-3-sulfonamide] |
| < 500 nM | N#Cc1cc(F)c(NS(=O)(=O)c2c[nH]c(-c3ccccn3)c2)cc1F [Cpd 353, N-(4-cyano-2,5-difluoro-phenyl)-5-(2-pyridyl)-1H-pyrrole-3-sulfonamide] |
| 500 to 5000 nM | N#Cc1cc(F)c(NS(=O)(=O)c2c[nH]c(-c3ccccn3)c2)c(F)c1 [Cpd 354, N-(4-cyano-2,6-difluoro-phenyl)-5-(2-pyridyl)-1H-pyrrole-3-sulfonamide] |
| < 500 nM | N#Cc1cc(F)c(NS(=O)(=O)c2c[nH]c(-c3ccccn3)c2)cc1Cl [Cpd 357, N-(5-chloro-4-cyano-2-fluoro-phenyl)-5-(2-pyridyl)-1H-pyrrole-3-sulfonamide] |
| < 500 nM | N#Cc1ccc(NS(=O)(=O)c2c[nH]c(C3=CCCCC3)c2)c(F)c1 [Cpd 358, N-(4-cyano-2-fluoro-phenyl)-5-(cyclohexen-1-yl)-1H-pyrrole-3-sulfonamide] |
| < 500 nM | CSc1cccc(Cc2c[nH]cc2S(=O)(=O)Nc2ccc(C#N)cc2F)c1 [Cpd 367, N-(4-cyano-2-fluoro-phenyl)-4-[(3-methylsulfanylphenyl)methyl]-1H-pyrrole-3-sulfonamide] |
| 500 to 5000 nM | COCc1cccc(Cc2c[nH]cc2S(=O)(=O)Nc2ccc(C#N)cc2F)c1 [Cpd 368, N-(4-cyano-2-fluoro-phenyl)-4-[[3-(methoxymethyl)phenyl]methyl]-1H-pyrrole-3-sulfonamide] |
| 500 to 5000 nM | O=S(=O)(Nc1cc(F)c(C(F)(F)F)cc1F)c1c[nH]c(-c2cccc(Br)n2)c1 [Cpd 371, 5-(6-bromo-2-pyridyl)-N-[2,5-difluoro-4-(trifluoromethyl)phenyl]-1H-pyrrole-3-sulfonamide] |
| < 500 nM | N#Cc1ccc(NS(=O)(=O)c2c[nH]c(-c3cccc(Cl)n3)c2)c(F)c1 [Cpd 372, 5-(6-chloro-2-pyridyl)-N-(4-cyano-2-fluoro-phenyl)-1H-pyrrole-3-sulfonamide] |
| 500 to 5000 nM | N#Cc1ccc(NS(=O)(=O)c2c[nH]c(-c3cccc(C(F)(F)F)n3)c2)c(F)c1 [Cpd 373, N-(4-cyano-2-fluoro-phenyl)-5-[6-(trifluoromethyl)-2-pyridyl]-1H-pyrrole-3-sulfonamide] |
| < 500 nM | N#Cc1ccc(NS(=O)(=O)c2c[nH]c(-c3cccc(Br)n3)c2)c(F)c1 [Cpd 374, 5-(6-bromo-2-pyridyl)-N-(4-cyano-2-fluoro-phenyl)-1H-pyrrole-3-sulfonamide] |
| 500 to 5000 nM | O=S(=O)(Nc1cc(Cl)c(C(F)(F)F)cc1F)c1c[nH]c(-c2ccccn2)c1 [Cpd 379, N-[5-chloro-2-fluoro-4-(trifluoromethyl)phenyl]-5-pyridin-2-yl-1H-pyrrole-3-sulfonamide] |
| < 500 nM | N#Cc1ccc(NS(=O)(=O)c2c[nH]c(-c3cccc4cccnc34)c2)c(F)c1 [Cpd 380, N-(4-cyano-2-fluorophenyl)-5-(guinolin-8-yl)-1H-pyrrole-3-sulfonamide] |
| 5000 to 50000 nM | N#Cc1ccc(NS(=O)(=O)c2c[nH]cc2-c2cccc3ccccc23)c(F)c1 [Cpd 381, N-(4-cyano-2-fluorophenyl)-4-naphthalen-1-yl-1H-pyrrole-3-sulfonamide] |
